One compound from patent US20110053910A1, “2 -HETEROCYCLYLOXYBENZOYL AMINO HETEROCYCLYL COMPOUNDS AS MODULATORS OF GLUCOKINASE FOR THE TREATMENT OF TYPE 2 DIABETES” (priority 2005, published 2011) can be followed below.

One assay relates to Zucker obese fa/fa rats. Briefly: Oral Glucose Tolerance Test (OGTT). It is filed as in vivo, rat. To be noted: 10 mg/kg, given orally 120 minutes before glucose 2 g/kg; Zucker obese fa/fa rats on high fat diet; vehicle-control AUC = zero percent. The method, then:
Oral glucose tolerance tests were done on conscious Zucker obese fa/fa rats (age 12-13 weeks or older) fed a high fat diet (45% kcal fat) for at least two weeks prior to experimentation. The animals were fasted for 2 hours before use for experiments. A test compound or a vehicle was given orally 120 minutes before oral administration of a glucose solution at a dose of 2 g/kg body weight. Blood glucose levels were measured using a Accucheck glucometer from tail bled samples taken at different time points before and after administration of glucose (time course of […]). A time curve of the blood glucose levels was generated and the area-under-the-curve (AUC) for 120 minutes was calculated (the time of glucose administration being time zero). Percent reduction in glucose excursion was determined using the AUC in the vehicle-control group as zero percent reduction.

The target of assay [1] is T1, recombinant human pancreatic GLK (Homo sapiens, UniProt P35557).
T1 sequence (P35557 1-465): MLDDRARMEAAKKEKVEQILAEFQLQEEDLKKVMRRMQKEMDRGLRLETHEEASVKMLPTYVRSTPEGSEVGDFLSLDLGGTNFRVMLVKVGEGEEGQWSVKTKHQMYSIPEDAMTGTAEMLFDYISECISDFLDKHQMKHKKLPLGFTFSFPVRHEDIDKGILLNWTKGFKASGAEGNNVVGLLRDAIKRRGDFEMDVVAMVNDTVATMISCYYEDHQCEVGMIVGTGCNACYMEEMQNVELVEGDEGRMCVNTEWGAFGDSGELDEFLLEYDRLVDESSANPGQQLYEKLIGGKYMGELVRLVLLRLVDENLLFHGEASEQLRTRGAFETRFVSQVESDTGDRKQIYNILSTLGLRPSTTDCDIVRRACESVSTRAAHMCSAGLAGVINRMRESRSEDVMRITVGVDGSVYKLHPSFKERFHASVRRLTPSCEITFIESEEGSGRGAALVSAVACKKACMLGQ
Description: biochemical.

Regarding `C[C@@H](CO)Oc1cc(Oc2nc3ccccc3s2)cc(C(=O)Nc2ccn(C)n2)c1` [Example 1, 3-(1,3-Benzothiazol-2-yloxy)-5-{[(1S)-2-hydroxy-1-methylethyl]oxy}-N-(1-methyl-1H-pyrazol-3-yl)benzamide], in the assay on Zucker obese fa/fa rats, the “activity in OGTT (percent reduction in glucose excursion, AUC)” value was found to be 50%. Besides, the 50% effective concentration (EC50) in assay [1] was found to be 0.088 µM.

By EC50 is commonly meant the concentration that produces a half-maximal response.
